From patent publication US20210369681A1, “Identification of PPM1D mutations as a novel biomarker for NAMPTi sensitivity” (YALE UNIVERSITY, priority 2018, published 2021) come the findings set out here.

For data set [1], the system named is parental and PPM1Dtrnc. immortalized human astrocytes. The class given is cell-based. Here is the method: In vitro cellular viability assessments of immortalized human astrocytes, MCF7, and U2OS cell lines were made using a previously described, high-content, microscopy platform developed by our group. In brief, cells were plated in a 96-well plate at a density of 2000 cells/well, and incubated overnight. Drug treatment or vehicle (0.5% DMSO) control was administered, and cells were incubated for 72-96 hours as indicated. Plates were then washed with PBS and fixed with ice-cold 70% ethanol for 2 hours at 4° C. […] Cells were imaged using a Cytation3 imager (BioTek), and images were stitched and analyzed as described above. Viability assessments were made comparing drug treated to vehicle treated conditions. SU-DIPG and HSJD-DIPG-007 spheroid viability was assessed using CytoTox-Glo (Promega), according to the manufacturer's protocols. Spheroids were treated with FK866 for 120 hours before analysis using this method. IC50 calculations were made using GraphPad Prism, by fitting data to an [inhibitor] vs response−variable slope four parameter nonlinear regression (as depicted in the representative figures). siRNA Transfection and Viability Analysis Individual NAPRT targeting siRNAs were ordered from Dharmacon Inc. (Horizon Discovery), with target sequences listed in Table 1. The panel of siRNAs used for synthetic lethal viability screening was hand-selected and ordered from Dharmacon Inc. and were provided in ON-TARGET plus mixtures, each containing up to four unique siRNAs per gene. 2×10^5 astrocytes were reverse-transfected with different siRNAs (200 nM final concentration), using Lipofectamine RNAiMAX (Invitrogen), according to manufacturer's protocols. For individual siRNAs, cells were incubated for 72 hours, pelleted, and lyzed for immunoblotting. For the siRNA screen, cells were incubated for 24 hours and split to different condition plates, where they were incubated for an additional 24 hours. Cells were then treated with the described doses of FK866, and viability was assessed after 72 hours of drug treatment, using the image-based pipeline described above. Viability measurements were made for each siRNA, and normalized to FK866-untreated conditions.
Given the role of PPM1D in DDR pathways, we performed a small molecule synthetic lethal screen with a panel of inhibitors against key DNA repair and metabolic proteins, using methodology described previously by our group.

Data set [2] relates to serially-transplanted PPM1D mutant astrocyte xenografts. The experiment in a line: Serially-transplanted PPM1D mutant astrocyte xenografts. Type of data set: in vivo, NSG mice. Conditions: 20 mg/kg BID. How it is done:
(§1) Astrocyte xenograft studies were performed in NOD scid gamma (NSG, NOD.Cg-Prkdc^scidIl2rg^tm1Wj1/SzJ female mice 3-4 weeks old) mice. For cell line xenografts, 5×10^6 WT or PPM1D^trnc. astrocytes, stably expressing firefly luciferase (lentivirus-plasmids from Cellomics Technology; PLV-10003), were combined with Matrigel (Corning, 47743-722) in a total volume of 0.2 mL. Cell-Matrigel suspension was injected subcutaneously into both the right and left flanks of shaved NSG mice. Mice were randomly sorted into treatment groups, and tumor burden and growth were measured on a weekly basis, via BLI intensity, as described below. FK866 was solubilized in DMSO at a concentration of 80 mg/ml. Mice were then administered the drug intraperitoneally twice a day for 4 days, repeated weekly for 3 weeks at 20 mg/kg in 10% cyclodextrin. Treatment began after one month of growth. Tumors were harvested after completion of treatment, and mass for each tumor was measured. Serially transplanted xenografts were created via continuous transplantation of PPM1D^trnc. cell line xenografts in NSG mice. […] Mice were sorted randomly into treatment groups, and tumor volume was measured using standard caliper-based techniques. Tumor volume was calculated as length×width^2×0.52. […] Mice were sorted randomly into treatment groups, and tumor burden was assessed through caliper measurement and volume calculations. […]

For data set [3], the system named is U2OS cell line xenografts. The experiment in a line: U2OS cell line xenografts. The class given is in vivo, athymic nude mice.
Data set [4] concerns SU-DIPG-IV, XIII, and XVII (WT DIPG lines). The experiment in a line: DIPG spheroid viability (CytoTox-Glo), SU-DIPG lines. The class given is cell-based, human.
A further data set has as its system SU-DIPG-XXXV. The data set is described as follows: DIPG spheroid viability (CytoTox-Glo), PPM1D mutant line. Type of data set: cell-based, human. Conditions: 120 hr treatment; spheroids.
Data set [5] concerns PPM1Dtrnc. astrocyte xenografts. The experiment in a line: PPM1Dtrnc. astrocyte cell line xenografts. Conditions: 20 mg/kg BID i.p. The class given is in vivo, NOD scid gamma (NSG) mice. How it is done: as §1
Another data set deals with U2OS. The experiment in a line: U2OS cell viability. Particulars: 96 hr treatment. Type of data set: cell-based, human. How it is done: (§2) hTert/E6/E7 immortalized human astrocytes were acquired from the lab of Dr. Timothy Chan, and have been previously characterized. Unless noted otherwise, astrocytes were grown in DMEM, high glucose (ThermoFisher Scientific/Gibco) plus 10% FBS (Gibco) as adherent monolayers. U2OS cells were purchased from ATCC, and were grown in DMEM, high glucose plus 10% FBS. MCF7 cells were grown in RPMI1640 (ThermoFisher Scientific/Gibco) with the addition of 10% FBS.

The subject of another data set is MCF7. The data set is described as follows: MCF7 cell viability. The class given is cell-based, human. Particulars: 96 hr treatment. How it is done:
as §2

For data set [6], the system named is NAD and NADP levels in WT and PPM1Dtrnc. astrocytes. The data set is described as follows: NAD / NADP quantification in astrocytes. Conditions: 10 nM FK866, 24 hrs. Type of data set: cell-based, human. How it is done:
The NAD metabolome was quantitatively analyzed using LC-MS/MS, using two separations on Hypercarb and 13C metabolite standards. Subsequent NAD level analyses were performed using a NAD/NADH Quantification kit (Sigma), as per the manufacturer's specifications. Me/hME-DIP, Bisulfite Conversion, and Global 5-hmC Detection Genomic DNA was purified using the Wizard Genomic DNA purification kit (Promega), and subsequently immunoprecipitated or bisulfite-converted. […] Immunoprecipitated DNA was extracted with phenol/chloroform and analyzed using quantitative PCR (qPCR), as described below. Bisulfite conversion was performed via EpiMark Bisulfite Conversion kit (NEB). Modified DNA was then amplified using EpiMark Hot Start Taq DNA polymerase (NEB), with primers listed in Table 1, and purified with a PCR purification kit (Qiagen). Methylation was then assessed through Sanger-sequencing of the NAPRT promoter. Global 5-hydroxymethylcytosine levels were assessed via the Global 5-hmC quantification kit (Active Motif), according to manufacturer's protocols. Quantitative PCR (qPCR) mRNA transcripts were purified from cells using a RNAeasy kit (Qiagen) and subsequently reverse transcribed using a High Capacity cDNA reverse transcription kit (Applied Biosystems). PPM1D and NAPRT gene expression levels were assessed through qPCR with TaqMan fluorescent probes (all from Applied Biosystems): PPM1D (4331182), NAPRT (4351372), and Actin (4333762F), according to manufacturer's protocol. Expression level fold change was calculated via ΔΔCt comparison, using Actin as a reference gene. The NAPRT promoter region was quantitated via qPCR using Fast Start Universal SYBR Green Master with ROX (Roche), and primers listed in Table 1. All qPCR reactions were run on a StepOnePlus Real Time PCR system (Applied Biosystems).

Data set [7] deals with NAPRT expression in PPM1Dtrnc. cells. The experiment in a line: NAPRT immunoblot after DNA demethylating agents. The class given is cell-based, human. Particulars: varying doses, 72 hrs. Here is the method: PPM1D^trnc. astrocytes were treated with 50 µg/mL cycloheximide or 1 μM MG132 (both Sigma) for the indicated amount of time. Cells were then washed, pelleted, and lyzed for subsequent immunoblotting approaches, as described above. Quantification of immunoblot intensity was calculated using ImageJ software, and consisted of multiple (n=3) blots. Irradiation of cells was performed using an X-RAD KV irradiator (Precision X-ray), and treatment consisted of an unfractionated, 10 Gy dose. PPM1D inhibitor treatment with GSK2830371 (Selleckchem), consisted of 50 nM treatment, 24 hours prior to IR. FK866 (Selleckchem), GPP78 (Tocris Bioscience), STF118804 (Tocris Bioscience), STF31 (Tocris Bioscience), 5-azacytidine (Selleckchem), and Decitabine (Selleckchem) were dissolved in DMSO and used for treatment as indicated.
(In general: In western blotting, separated proteins are transferred to a membrane and probed.)

In the case of `O=C(/C=C/c1cccnc1)NCCCCC1CCN(C(=O)c2ccccc2)CC1` [FK866], the “IC50 ratio (Parental/PPM1Dtrnc.)” value in data set [1] is 9746.59. For the same compound, the “Reduced overall tumor size, fold change” value in [2] (3 cycles of four days on, three days off, calipers and BLI, vs vehicle) is on record as 17.1. Further, the “Tumor growth delay (Kaplan-Meier)” value in data set [2] (3 cycles, compared to a vehicle control) is on record as “significantly delayed”. Besides, in [3] (20 mg/kg BID for 3 four day weekly cycles, vs vehicle), the “Tumor volume, fold change” value is given as 5.86. In addition, the “Body mass difference between the treatment groups” value in [3] (all mice on study, throughout the dosing schedule (FIG. 13B)) is reported as “no significant differences”. Further, in data set [4] (all SU-DIPG spheroid cultures tested, growth media devoid of nicotinic acid (NA)), the “Sensitivity to FK866 in media devoid of nicotinic acid” value was “strong sensitivity”. The “Response to FK866 treatment” value in data set [4] (three WT DIPG lines, 120 hr, NA-containing media) is “resistant”. Further, the Cytotoxic doses result with SU-DIPG-XXXV is “low, single-digit nanomolar range”. In addition, the “Lower final tumor mass, fold change” value in data set [5] (3 cycles, versus vehicle alone) worked out at 3.1. Besides, the “Reduction in tumor burden (BLI), fold change” value in data set [5] (4 days weekly for 3 weeks, after three weeks, vs vehicle) was 4.93. The “Sensitivity to FK866 treatment” value with U2OS and with MCF7 was “strong sensitivity” in each case. Further, the “Decline of NAD and NADP compared with WT astrocytes” value in data set [6] (PPM1Dtrnc. cells) is given as “significantly greater”. The “Cellular pools of NAD and NADP” value in [6] (WT astrocytes) was “dropped markedly”.
In the case of `Nc1ncn([C@@H]2O[C@H](CO)[C@@H](O)[C@H]2O)c(=O)n1` [azacytidine], the “Reversal of NAPRT gene silencing” value in data set [7] is recorded as “failed to reverse”.
